Results published in US8192962B2, “Processes for detecting toxic substances” (Daikin Industries, Ltd., priority 2001, dated 2012).

Tested on: Genes belonging to other category
Assay: DNA chip mRNA expression in yeast, genes belonging to other category (Table 9)
Assay type: cell-based, Saccharomyces cerevisiae S288C
Experimental: Yeast (Saccharomyces cerevisiae S288C (α SUC2mal mel gap2 CUP1)) were incubated at 25° C. on YPD medium (yeast extract 1%, polypepton 2%, glucose 2%). One of toxic chemical substances was added to the cells at logarithmic growth phase, and the cells were further incubated for two hours. Cells were cultured without any chemical substance in the same condition, and were used as control. Concentrations of the chemical substances were defined to inhibit the growth of the yeast but not lead to death.
After completion of the incubation, the culture was centrifuged to collect the cells. To the cells, sodium acetate buffer (50 mM sodium acetate, 10 mM EDTA, 1% SDS) was added, and the mixture was shaken at 65° C. for five minutes, followed by returning to room temperature, and obtaining the supernatant, of which the procedures were repeated two times. To the supernatant, ½ amount of a solution of phenol/chloroform was added, and the mixture was centrifuged to give a supernatant, which was added with an equal amount of chloroform, and the mixture was centrifuged to give a supernatant. To the supernatant, an equal amount of isopropanol containing 0.3 M sodium acetate was added, and the mixture was allowed to stand at room temperature for 30 minutes, after which the mixture was centrifuged to give a sediment of the whole RNAs. Seventy % ethanol was added to the sediment, and the mixture was again centrifuged to give a sediment, which was then dried and dissolved in water. mRNA was isolated from the whole RNAs as followings. In view of the fact that a poly A chain is attached to the 3′ terminus of mRNA, a polynucleotide having a poly T structure which was immobilized on the surface of latex beads was used to trap the mRNA, and then the mRNA was washed and eluted with spine column (Oligotex-dT30<Super>mRNA Purification Kit, Takara). Reverse transcription of the mRNA was conducted with a reverse transcriptase (Super Script II Reverse Transcriptase; catalogue No. 18064-014, GibcoBRL) using fluorescence-labeled nucleotides to give cDNAs that were introduced with Cy3-dUTP or Cy5-dUTP during the reverse transcription.
The labeled cDNAs were dissolved in TE buffer (10mM Tris-HCl/1 mM EDTA, pH8.0), and the solution was dropped on the DNA chip containing the whole genes of yeast (DNA Chip Research Inc. Japan) so that the cDNAs were hybridized on the DNA chip at 65° C. for over 12 hours. The fluoresces intensity of the DNA chip was read with a scanner, and the ratio relative to the fluorescence intensity resulting from the absence of chemical substance was estimated as the following, which is shown in Tables 1 to 9: […]

CN(C)C(=S)SSC(=S)N(C)C [(10), Tetramethylthiuram disulfide]
The level of expressed mRNA in the presence of chemical substance/The level of expressed mRNA in the absence of chemical substance (yeast gene YJR058C): 2.6 | The level of expressed mRNA in the presence of chemical substance/The level of expressed mRNA in the absence of chemical substance (yeast gene YJR086W): 1.1 | The level of expressed mRNA in the presence of chemical substance/The level of expressed mRNA in the absence of chemical substance (yeast gene YJR110W): 2.3 | The level of expressed mRNA in the presence of chemical substance/The level of expressed mRNA in the absence of chemical substance (yeast gene YJR123W): 0.5 | The level of expressed mRNA in the presence of chemical substance/The level of expressed mRNA in the absence of chemical substance (yeast gene YKL007W): 2.4 | The level of expressed mRNA in the presence of chemical substance/The level of expressed mRNA in the absence of chemical substance (yeast gene YKL008C): 0.4 | The level of expressed mRNA in the presence of chemical substance/The level of expressed mRNA in the absence of chemical substance (yeast gene YKL013C): 1.4 | The level of expressed mRNA in the presence of chemical substance/The level of expressed mRNA in the absence of chemical substance (yeast gene YKL039W): 3.3 | The level of expressed mRNA in the presence of chemical substance/The level of expressed mRNA in the absence of chemical substance (yeast gene YKL041W): 1.5 | The level of expressed mRNA in the presence of chemical substance/The level of expressed mRNA in the absence of chemical substance (yeast gene YKL079W): 2.0 | The level of expressed mRNA in the presence of chemical substance/The level of expressed mRNA in the absence of chemical substance (yeast gene YKL096W): 0.5 | The level of expressed mRNA in the presence of chemical substance/The level of expressed mRNA in the absence of chemical substance (yeast gene YKL117W): 2.1 | The level of expressed mRNA in the presence of chemical substance/The level of expressed mRNA in the absence of chemical substance (yeast gene YKL139W): 1.5 | The level of expressed mRNA in the presence of chemical substance/The level of expressed mRNA in the absence of chemical substance (yeast gene YKL165C): 0.4 | The level of expressed mRNA in the presence of chemical substance/The level of expressed mRNA in the absence of chemical substance (yeast gene YKL171W): 1.8 | The level of expressed mRNA in the presence of chemical substance/The level of expressed mRNA in the absence of chemical substance (yeast gene YKL193C): 1.6 | The level of expressed mRNA in the presence of chemical substance/The level of expressed mRNA in the absence of chemical substance (yeast gene YKR014C): 2.0 | The level of expressed mRNA in the presence of chemical substance/The level of expressed mRNA in the absence of chemical substance (yeast gene YKR098C): 2.7 | The level of expressed mRNA in the presence of chemical substance/The level of expressed mRNA in the absence of chemical substance (yeast gene YLL050C): 1.0 | The level of expressed mRNA in the presence of chemical substance/The level of expressed mRNA in the absence of chemical substance (yeast gene YLL051C): 1.8 | The level of expressed mRNA in the presence of chemical substance/The level of expressed mRNA in the absence of chemical substance (yeast gene YLR120C): 1.6 | The level of expressed mRNA in the presence of chemical substance/The level of expressed mRNA in the absence of chemical substance (yeast gene YLR121C): 2.0 | The level of expressed mRNA in the presence of chemical substance/The level of expressed mRNA in the absence of chemical substance (yeast gene YLR136C): 6.0 | The level of expressed mRNA in the presence of chemical substance/The level of expressed mRNA in the absence of chemical substance (yeast gene YLR178C): 4.1 | The level of expressed mRNA in the presence of chemical substance/The level of expressed mRNA in the absence of chemical substance (yeast gene YLR200W): 2.6 | The level of expressed mRNA in the presence of chemical substance/The level of expressed mRNA in the absence of chemical substance (yeast gene YLR250W): 2.4 | The level of expressed mRNA in the presence of chemical substance/The level of expressed mRNA in the absence of chemical substance (yeast gene YLR266C): 2.6 | The level of expressed mRNA in the presence of chemical substance/The level of expressed mRNA in the absence of chemical substance (yeast gene YLR327C): 8.3 | The level of expressed mRNA in the presence of chemical substance/The level of expressed mRNA in the absence of chemical substance (yeast gene YLR340W): 0.5 | The level of expressed mRNA in the presence of chemical substance/The level of expressed mRNA in the absence of chemical substance (yeast gene YLR356W): 1.6 | The level of expressed mRNA in the presence of chemical substance/The level of expressed mRNA in the absence of chemical substance (yeast gene YLR362W): 3.3 | The level of expressed mRNA in the presence of chemical substance/The level of expressed mRNA in the absence of chemical substance (yeast gene YLR391W): 0.7 | The level of expressed mRNA in the presence of chemical substance/The level of expressed mRNA in the absence of chemical substance (yeast gene YLR423C): 1.0 | The level of expressed mRNA in the presence of chemical substance/The level of expressed mRNA in the absence of chemical substance (yeast gene YLR429W): 1.3 | The level of expressed mRNA in the presence of chemical substance/The level of expressed mRNA in the absence of chemical substance (yeast gene YML130C): 4.2 | The level of expressed mRNA in the presence of chemical substance/The level of expressed mRNA in the absence of chemical substance (yeast gene YMR004W): 3.4 | The level of expressed mRNA in the presence of chemical substance/The level of expressed mRNA in the absence of chemical substance (yeast gene YMR094W): 0.9 | The level of expressed mRNA in the presence of chemical substance/The level of expressed mRNA in the absence of chemical substance (yeast gene YMR104C): 3.2 | The level of expressed mRNA in the presence of chemical substance/The level of expressed mRNA in the absence of chemical substance (yeast gene YMR110C): 1.6 | The level of expressed mRNA in the presence of chemical substance/The level of expressed mRNA in the absence of chemical substance (yeast gene YMR214W): 1.0 | The level of expressed mRNA in the presence of chemical substance/The level of expressed mRNA in the absence of chemical substance (yeast gene YMR219W): 0.9 | The level of expressed mRNA in the presence of chemical substance/The level of expressed mRNA in the absence of chemical substance (yeast gene YMR226C): 2.2 | The level of expressed mRNA in the presence of chemical substance/The level of expressed mRNA in the absence of chemical substance (yeast gene YMR255W): 2.4 | The level of expressed mRNA in the presence of chemical substance/The level of expressed mRNA in the absence of chemical substance (yeast gene YMR275C): 2.1 | The level of expressed mRNA in the presence of chemical substance/The level of expressed mRNA in the absence of chemical substance (yeast gene YMR276W): 1.7 | The level of expressed mRNA in the presence of chemical substance/The level of expressed mRNA in the absence of chemical substance (yeast gene YMR297W): 1.0
